Assay [1] addresses Poly [ADP-ribose] polymerase 1 (Rattus norvegicus) (UniProt P27008). As to the kind of experiment: Inhibition of PARP1 in rat PC12 cells assessed as NAD+ recovery at 10 uM pre-treated for 1 hr before hydrogen peroxide addition followed by washout and compound treated again for 1 hr relative to 5H-phenanthridin-6-one. The format is cell-based. The settings on record: PC-12.
The target is the same in assay [2]. Nature of the assay: Inhibition of PARP1 in rat PC12 cells assessed as NAD+ recovery at 1 uM pre-treated for 1 hr before hydrogen peroxide addition followed by washout and compound treated again for 1 hr relative to control. Type of assay: cell-based. To be noted: PC-12.
Assay [3] concerns the target Poly [ADP-ribose] polymerase 1 (Homo sapiens, UniProt P09874). As to the kind of experiment: Inhibition of recombinant human PARP1 by in vitro assay.
Assay [4] deals with Poly [ADP-ribose] polymerase 1 (Rattus norvegicus) (UniProt P27008). As to the kind of experiment: Inhibition of PARP1 in rat PC12 cells assessed as NAD+ recovery at 30 uM pre-treated for 1 hr before hydrogen peroxide addition followed by washout and compound treated again for 1 hr relative to 5H-phenanthridin-6-one. Type of assay: cell-based. To be noted: PC-12.
Assay [5] has the same target. Nature of the assay: Inhibition of PARP1 in rat PC12 cells assessed as NAD+ recovery at 3 uM pre-treated for 1 hr before hydrogen peroxide addition followed by washout and compound treated again for 1 hr relative to 5H-phenanthridin-6-one. To be noted: PC-12. Type of assay: cell-based.

Experimental findings from ChEMBL document CHEMBL1933047, “Novel poly(ADP-ribose) polymerase-1 inhibitors” (Bioorg Med Chem Lett, 2012) are described below.

Poly [ADP-ribose] polymerase 1, sequence (P09874 whole entry): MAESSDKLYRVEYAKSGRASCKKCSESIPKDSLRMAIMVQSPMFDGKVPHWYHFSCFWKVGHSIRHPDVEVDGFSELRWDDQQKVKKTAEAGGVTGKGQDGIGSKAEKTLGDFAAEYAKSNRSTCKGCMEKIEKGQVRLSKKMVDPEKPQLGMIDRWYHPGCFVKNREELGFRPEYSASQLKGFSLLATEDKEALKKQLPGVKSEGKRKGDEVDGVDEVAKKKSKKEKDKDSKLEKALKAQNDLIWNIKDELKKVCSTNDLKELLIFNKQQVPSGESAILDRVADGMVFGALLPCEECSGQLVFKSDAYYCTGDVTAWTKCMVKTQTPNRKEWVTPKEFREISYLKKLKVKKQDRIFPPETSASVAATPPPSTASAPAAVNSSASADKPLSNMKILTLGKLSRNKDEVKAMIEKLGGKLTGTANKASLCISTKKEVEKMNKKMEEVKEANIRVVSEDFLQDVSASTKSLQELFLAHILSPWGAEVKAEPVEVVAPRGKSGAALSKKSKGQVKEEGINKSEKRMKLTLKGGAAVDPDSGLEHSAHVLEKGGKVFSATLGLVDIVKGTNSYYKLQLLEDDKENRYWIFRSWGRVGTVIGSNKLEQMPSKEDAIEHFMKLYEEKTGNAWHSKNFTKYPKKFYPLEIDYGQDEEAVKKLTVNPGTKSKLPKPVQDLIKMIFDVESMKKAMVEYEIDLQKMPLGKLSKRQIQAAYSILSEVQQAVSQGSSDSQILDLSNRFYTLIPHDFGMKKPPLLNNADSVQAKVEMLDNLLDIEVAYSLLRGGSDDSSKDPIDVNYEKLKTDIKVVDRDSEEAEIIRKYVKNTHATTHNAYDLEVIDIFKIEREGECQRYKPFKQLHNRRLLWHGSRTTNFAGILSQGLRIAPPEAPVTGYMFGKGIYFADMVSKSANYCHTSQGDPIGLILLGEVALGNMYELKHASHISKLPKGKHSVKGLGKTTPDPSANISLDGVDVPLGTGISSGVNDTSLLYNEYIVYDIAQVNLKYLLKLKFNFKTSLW
Poly [ADP-ribose] polymerase 1 (Rattus norvegicus), sequence (P27008 whole entry): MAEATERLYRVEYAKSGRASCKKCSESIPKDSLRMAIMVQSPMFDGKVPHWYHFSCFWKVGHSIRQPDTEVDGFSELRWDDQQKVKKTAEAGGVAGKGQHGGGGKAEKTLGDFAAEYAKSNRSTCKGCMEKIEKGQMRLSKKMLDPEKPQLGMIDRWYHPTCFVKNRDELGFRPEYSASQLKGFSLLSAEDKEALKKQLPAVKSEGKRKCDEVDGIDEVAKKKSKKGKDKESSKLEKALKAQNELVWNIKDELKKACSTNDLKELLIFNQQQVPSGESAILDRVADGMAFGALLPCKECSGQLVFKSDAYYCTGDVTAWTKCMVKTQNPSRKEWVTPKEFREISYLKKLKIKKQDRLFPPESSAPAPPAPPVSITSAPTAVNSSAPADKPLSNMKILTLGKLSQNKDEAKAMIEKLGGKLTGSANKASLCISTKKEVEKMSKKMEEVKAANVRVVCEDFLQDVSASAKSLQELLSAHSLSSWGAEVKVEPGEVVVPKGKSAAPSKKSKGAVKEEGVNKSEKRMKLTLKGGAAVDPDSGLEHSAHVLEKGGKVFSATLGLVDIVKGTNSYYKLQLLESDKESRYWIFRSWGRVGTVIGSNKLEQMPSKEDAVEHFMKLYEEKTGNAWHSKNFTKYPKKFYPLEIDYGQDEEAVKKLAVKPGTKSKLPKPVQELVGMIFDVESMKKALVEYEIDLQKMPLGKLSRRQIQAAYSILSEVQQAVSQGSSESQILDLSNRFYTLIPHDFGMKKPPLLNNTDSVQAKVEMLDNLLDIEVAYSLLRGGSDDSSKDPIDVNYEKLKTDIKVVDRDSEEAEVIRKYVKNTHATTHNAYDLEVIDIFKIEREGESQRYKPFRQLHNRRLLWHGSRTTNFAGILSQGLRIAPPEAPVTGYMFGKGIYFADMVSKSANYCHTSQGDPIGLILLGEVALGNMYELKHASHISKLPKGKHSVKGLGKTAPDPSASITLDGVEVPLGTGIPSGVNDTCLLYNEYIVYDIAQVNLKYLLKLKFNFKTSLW

Consider `O=C(CN1CCOCC1)c1ccc2[nH]c3c4c(c5c(c3c2c1)C(=O)NC5=O)CCC4`, for which the results for the inhibition in assay [1] and in assay [2] were 63% and 38%, respectively. In addition, the IC50 in assay [3] came to 13 nM.

As for `CCN(CC)CC(=O)c1ccc2[nH]c3c4c(c5c(c3c2c1)C(=O)NC5=O)CCC4`, the inhibition in assay [2] was determined as 10%; in assay [4], 70%.

For the compound `CC(C)(C)OC(=O)[C@@H]1CCCN1C(=O)CCC(=O)c1ccc2[nH]c3c4c(c5c(c3c2c1)C(=O)NC5=O)CCC4`, the results for the inhibition in assay [2] and in assay [4] were 39% and 98%, respectively.

As for `CN1N=C(c2ccc3[nH]c4c5c(c6c(c4c3c2)C(=O)NC6=O)CCC5)CCC1=O`, the inhibition in assay [2] was 29%.

Turning to `O=C(CCC(=O)N1CCCCC1)c1ccc2[nH]c3c4c(c5c(c3c2c1)C(=O)NC5=O)CCC4`, the values for the inhibition in assay [2] and in assay [4] were 55% and 59%, respectively.

Turning to `CCN(CC)C(=O)CCC(=O)c1ccc2[nH]c3c4c(c5c(c3c2c1)C(=O)NC5=O)CCC4`, the inhibition in assay [2] worked out at 41%; in assay [4], 78%.

Regarding `NCCNC(=O)CCC(=O)c1ccc2[nH]c3c4c(c5c(c3c2c1)C(=O)NC5=O)CCC4`, the inhibition in assay [1] came out at 32%; in assay [2] it was 14%.

Turning to `CN(CC(=O)O)CC(=O)c1ccc2[nH]c3c4c(c5c(c3c2c1)C(=O)NC5=O)CCC4`, the inhibition in assay [2] is 14%; in assay [4], 45%.

On to `CN(CC(=O)OC(C)(C)C)CC(=O)c1ccc2[nH]c3c4c(c5c(c3c2c1)C(=O)NC5=O)CCC4`, for which the inhibition in assay [2] came out at 14%; in assay [4], 73%. Also, the IC50 in assay [3] stood at 19 nM.

Consider `O=C(CN1CCC[C@H]1C(=O)O)c1ccc2[nH]c3c4c(c5c(c3c2c1)C(=O)NC5=O)CCC4`, for which the inhibition came out at 14% in assay [2] and 43% in assay [4]. Besides, the IC50 in assay [3] came out at 7 nM.

For the compound `O=C1CCC(c2ccc3[nH]c4c5c(c6c(c4c3c2)C(=O)NC6=O)CCC5)=NN1`, the inhibition was determined as 49% in assay [1] and 29% in assay [2].

Regarding `CC(C)(C)OC(=O)[C@@H]1CCCN1CC(=O)c1ccc2[nH]c3c4c(c5c(c3c2c1)C(=O)NC5=O)CCC4`, the inhibition in assay [2] was 24%; in assay [4], 88%.

For the compound `O=C(O)CCC(=O)c1ccc2[nH]c3c4c(c5c(c3c2c1)C(=O)NC5=O)CCC4`, the inhibition in assay [2] was 8%; in assay [4], 42%.

With `CN1CCN(CC(=O)c2ccc3[nH]c4c5c(c6c(c4c3c2)C(=O)NC6=O)CCC5)CC1`, the inhibition is 43% in assay [1] and 7% in assay [2].

Turning to `CC(C)(C)OC(=O)N1CCN(C(=O)CCC(=O)c2ccc3[nH]c4c5c(c6c(c4c3c2)C(=O)NC6=O)CCC5)CC1`, the figures for the inhibition in assay [2] and in assay [4] were 19% and 29%, respectively.

Turning to `O=C(CCC(=O)N1CCCC1)c1ccc2[nH]c3c4c(c5c(c3c2c1)C(=O)NC5=O)CCC4`, the values for the inhibition in assay [2] and in assay [4] were 32% and 92%, respectively.

`O=C(CN1CCCCC1)c1ccc2[nH]c3c4c(c5c(c3c2c1)C(=O)NC5=O)CCC4`: the inhibition in assay [2] is 14%; in assay [4], 50%.

Turning to `COC(=O)[C@@H]1CCCN1CC(=O)c1ccc2[nH]c3c4c(c5c(c3c2c1)C(=O)NC5=O)CCC4`, the inhibition in assay [2] was 27%; in assay [4], 100%. The IC50 in assay [3] turned out to be 12 nM.

For `O=C(CCC(=O)c1ccc2[nH]c3c4c(c5c(c3c2c1)C(=O)NC5=O)CCC4)NCCO`, the inhibition is 26% in assay [1] and 24% in assay [2].

For the compound `O=C(Cn1cncn1)c1ccc2[nH]c3c4c(c5c(c3c2c1)C(=O)NC5=O)CCC4`, the inhibition in assay [2] stood at 25%; in assay [4], 55%.

As to `O=C(CCC(=O)N1CCC[C@H]1C(=O)O)c1ccc2[nH]c3c4c(c5c(c3c2c1)C(=O)NC5=O)CCC4`, the values for the inhibition in assay [5] and in assay [2] were 14% and 4%, respectively. Also, the IC50 in assay [3] was 2 nM.

As for `O=C(CCC(=O)N1CCNCC1)c1ccc2[nH]c3c4c(c5c(c3c2c1)C(=O)NC5=O)CCC4`, the inhibition in assay [2] is 10%.

As to `O=C1NC(=O)c2c1c1c(c3[nH]c4ccccc4c23)CCC1`, the values for the inhibition in assay [2] and in assay [4] were 30% and 42%, respectively.

For the compound `NC(=O)[C@@H]1CCCN1C(=O)CCC(=O)c1ccc2[nH]c3c4c(c5c(c3c2c1)C(=O)NC5=O)CCC4`, in assay [2], the inhibition turned out to be 11%.

Turning to `CC(C)(C)OC(=O)NCCNC(=O)CCC(=O)c1ccc2[nH]c3c4c(c5c(c3c2c1)C(=O)NC5=O)CCC4`, the inhibition stood at 26% in assay [2] and 48% in assay [4].

Regarding `O=C(CCC(=O)N1CCOCC1)c1ccc2[nH]c3c4c(c5c(c3c2c1)C(=O)NC5=O)CCC4`, the results for the inhibition in assay [2] and in assay [4] were 38% and 65%, respectively.

As usually defined, the inhibition is the share of the control response that was lost under treatment. What is called IC50 is the midpoint of a concentration-inhibition curve.
